Laboratory results reported in patent US20250221997A1, “TYK2 INHIBITOR FORMULATIONS AND METHODS OF MAKING THE SAME” (Takeda Pharmaceutical Company Limited, priority 2022, published 2025).
In brackets after ≈: the same amount, converted by molar mass. Entries after “also recorded” stand apart in the source; their conditions may differ.

Experiments:
Format in all cases: physicochemical
[1] = Hygroscopicity (water sorption vs relative humidity)
[2] = Solubility of Compound 1 polymorphs in aqueous systems, buffer solutions and biorelevant media; settings: for Aqueous Solubility: Form C Lot: a, Form A Lot: b
[3] = Polymorph screening, competitive slurry studies and humidity storage (form stability)
Excerpt: The key formulation challenge presented by Compound 1 was poor aqueous solubility. This could possibly limit absorption in vivo.

[4] = Solubility of drug substance in excipient Vitamin E TPGS
Excerpt: Vitamin E TPGS is a commercially available, non-ionic surfactant, derived from Vitamin E. It is commonly used to enhance the bioavailability of orally administered poorly water-soluble drugs.

[5] = pKa, dissociation constant and pH of saturated aqueous solution; settings: read-out: pKa of the protonated form
Protocol: The pKa of the protonated form of Compound 1 was determined to be 1.94±0.01. The pH of a saturated aqueous solution of Compound 1 was 8.6.

Q: What does the source list for `CNc1cc(Nc2cccn(-c3ccccn3)c2=O)nc2c(C(=O)N[C@@H]3CC[C@H]3OC)cnn12` [Form C]?
A: Hygroscopicity [1]: Limited hygroscopicity; Hygroscopicity, wt gain ([1]; at 75% RH): (1.75% wt gain at 75% RH); water sorption ([1]; between 5-95% relative humidity): 1.75%; Aqueous Solubility ([2]; 10 mM HCl, pH 2.0): 58 µg/mL; Aqueous Solubility ([2]; 50 mM Acetate buffer, pH 5.0): 13 µg/mL; Aqueous Solubility ([2]; 50 mM Phosphate buffer, pH 6.8): 4 µg/mL; solubility ([2]; FaSSIF, pH 6.5, fassif, thermodynamic from solid): 29 µg/mL (≈ 63 µM); Aqueous Solubility ([2]; FaSSIF, pH 6.5): 29 µg/mL; Aqueous Solubility ([2]; FcSSIF, pH 5.0): 41 µg/mL; Aqueous Solubility ([2]; SGF, pH 1.2 (0.1% Triton X100)): 35 µg/mL; solubility ([2]; aqueous buffer, thermodynamic from solid, 50 mM Acetate buffer, pH 5.0): 13 µg/mL (≈ 28.2 µM); solubility ([2]; aqueous buffer, thermodynamic from solid, 50 mM Phosphate buffer, pH 6.8): 4 µg/mL (≈ 8.69 µM); solubility ([2]; aqueous with cosolvent or surfactant or cyclodextrin, thermodynamic from solid, SGF, pH 1.2 (0.1% Triton X100)): 35 µg/mL (≈ 76 µM); solubility ([2]; simulated gastric fluid, thermodynamic from solid, 10 mM HCl, pH 2.0): 58 µg/mL (≈ 126 µM); solubility ([2]; thermodynamic from solid, FeSSIF, pH 5.0): 41 µg/mL (≈ 89 µM); relative stability of solid form ([3]; competitive slurry studies / polymorphs observed during development): most stable anhydrous, un-solvated form; also recorded: most stable polymorph observed to date; Conversion of Form C to Form A ([3]; in water itself after 1 day): not observed; water activity, aw, above which anhydrous Form C converts to hydrate Form A ([3]; solvent slurries): 0.62-0.82; Conversion of Form C to Form A ([3]; storage at 90% RH at room temperature for 11 days): no conversion to Form A was observed

Q: Which “solubility in the excipient Vitamin E TPGS” value [4] does the source give for `CNc1cc(Nc2cccn(-c3ccccn3)c2=O)nc2c(C(=O)N[C@@H]3CC[C@H]3OC)cnn12` [Compound 1] here?
A: high solubility

Q: What about the solubility at 48 h ([2]; FaSSGF, pH 1.42, fassgf or other biorelevant, thermodynamic from solid) of the same molecule?
A: 34.6 µg/mL (≈ 75.1 µM)

Q: And the solubility at 48 h ([2]; aqueous buffer, thermodynamic from solid, Initial Buffer pH 2.98, pH at 48 Hours 3.01, average of two runs)?
A: 18.9 µg/mL (≈ 41 µM)

Q: What about the solubility at 48 h ([2]; aqueous buffer, thermodynamic from solid, Initial Buffer pH 4.46, pH at 48 Hours 4.49, average of two runs) of the same molecule?
A: 13.3 µg/mL (≈ 28.9 µM)

Q: And the solubility at 48 h ([2]; aqueous buffer, thermodynamic from solid, Initial Buffer pH 6.81, pH at 48 Hours 6.75, average of two runs)?
A: 4.1 µg/mL (≈ 8.9 µM)

Q: And the solubility at 48 h ([2]; pH 8.6, thermodynamic from solid, Unbuffered water, pH at 48 Hours 8.6, average of three runs)?
A: 5.5 µg/mL (≈ 11.9 µM)

Q: And the solubility at 48 h ([2]; simulated gastric fluid, thermodynamic from solid, Initial Buffer pH 1.21, pH at 48 Hours 1.19, average of two runs)?
A: 58.1 µg/mL (≈ 126 µM)

Q: And the solubility at 48 h ([2]; thermodynamic from solid, FaSSIF (pH 1.64), pH at 48 Hours 1.50, average of two runs)?
A: 29.1 µg/mL (≈ 63.2 µM)

Q: And the solubility at 48 h ([2]; thermodynamic from solid, FeSSIF (pH 5.03), pH at 48 Hours 5.03, average of two runs)?
A: 41 µg/mL (≈ 89 µM)

Q: What about the pKa [5] of the same molecule?
A: 1.94
